Experimental findings from patent US6380251B1, “Cyclopentane heptan(ene)oic acid, 2-thiocarbamoyloxy and 2-carbamoyloxy compounds as therapeutic agents” (Allergan Sales, Inc., priority 2000, dated 2002) are described below.

Assay [1] has as its system PGF2α-sensitive receptor provisionally termed FPVASC. Kind of assay: relaxation of smooth muscle of isolated rabbit jugular vein. It counts as cell-based. As for the experimental part: Activity at different prostanoid receptors was measured in vitro in isolated smooth muscle preparations. FP-activity was measured as contraction of the isolated feline iris sphincter. Activity was also measured as relaxation of smooth muscle of isolated rabbit jugular vein a preparation which appears to contain a unique PGF2α-sensitive receptor provisionally termed FPVASC. TP-vasoconstrictor activity was measured as contraction of rings of the isolated rat thoracic aorta.
Many examples also have pronounced activity at the FP receptor, provisionally termed FP associated with the vascular endothelium in the rabbit jugular vein preparation. Since such agents would be vasodilators they have potential in hypertension and any disease where tissue blood perfusion is compromised. Such indications include, but are not limited to, systemic hypertension, angina, stroke, retinal vascular diseases, claudication, Raynauds disease, diabetes, and pulmonary hypertension.

The subject of a further assay is Dog intraocular pressure. Kind of assay: Dog intraocular pressure by applanation pneumatonometry. It is filed as in vivo. Particulars: dogs, 25 μl to the ocular surface, contralateral eye vehicle, measured before and at 6 hours; FIGS. 3 and 4. As for the experimental part:
The compounds were prepared at the said concentrations in a vehicle comprising 0.1% polysorbate 80 and 10 mM TRIS base. Dogs were treated by administering 25 μl to the ocular surface, the contralateral eye received vehicle as a control. Intraocular pressure was measured by applanation pneumatonometry. Dog intraocular pressure was measured immediately before drug administration and at 6 hours thereafter.

The term EC50 denotes the concentration giving half of the maximal effect. A low value points to higher potency in that assay. As to `NC(=O)CCC/C=C\C[C@@H]1[C@@H](COC(=S)NCc2cccc(Cl)c2)[C@H](O)C[C@@H]1O` [Example 20, (3-Chlorobenzyl)thiocarbamic acid O-[(1S,2R,3S,5R)-2-((Z)-6-carbamoylhex-2-enyl)-3,5-dihydroxycyclopentylmethyl]ester], the response in assay [1] was half-maximal at 274 nM (EC50).

As for `O=C(O)CCC/C=C\C[C@@H]1[C@@H](COC(=S)NCc2cccc(Cl)c2)[C@H](O)C[C@@H]1O` [Example 12, (Z)-7-[(1R,2S,3R,5S)-2-(3-Chlorobenzylthiocarbamoyloxymethyl)-3,5-dihydroxycyclopentyl]hept-5-enoic acid], the midpoint of the response in assay [1], the EC50, lay at 3 nM. Moreover, the “effect on intraocular pressure” value in the assay on Dog intraocular pressure was “lowered intraocular pressure”.

`O=C(O)CCC/C=C\C[C@H]1C(O)CC(O)[C@@H]1COC(=S)NCc1ccccc1` (stereo in doubt) [Example 9, 7-[2-Benzylthiocarbamoyloxymethyl-3,5-dihydroxycyclopentyl]hept-5-enoic acid] gave an EC50 in assay [1] of 427 nM. Moreover, the “effect on intraocular pressure” value in the assay with Dog intraocular pressure was “lowered intraocular pressure”.

For `O=C(O)CCC/C=C\C[C@@H]1[C@@H](COC(=O)NCCc2cccs2)[C@H](O)C[C@@H]1O` [Example 10, (Z)-7-[(1R,2S,3R,5S)-3,5-Dihydroxy-2-(2-thiophen-2-ylethylcarbamoyloxymethyl)-cyclopentyl]hept-5-enoic acid], the midpoint of the response in assay [1], the EC50, lay at 32000 nM.

Compound `O=C(O)CCC/C=C\C[C@H]1C(O)CC(O)[C@@H]1COC(=O)Nc1ccccc1` (stereo partly drawn) [Example 3, (Z)-7-((1R,2S,3R,5S)-3,5-Dihydroxy-2-phenzylcarbamoyloxymethylcyclopentyl)-hept-5-enoic acid] gave an EC50 in assay [1] of 193000 nM.

Consider `O=C(O)CCC/C=C\C[C@H]1C(O)CC(O)[C@@H]1COC(=O)NCc1ccccc1` (stereo in doubt) [Example 6, 7-[2-Benzylcarbamoyloxymethyl-3,5-dihydroxycyclopentyl]hept-5-enoic acid], for which the EC50 in assay [1] stood at 14200 nM.

In the case of `O=C(CCC/C=C\C[C@@H]1[C@@H](COC(=S)NCc2cccc(Cl)c2)[C@H](O)C[C@@H]1O)NCCO` [Example 18, (3-Chlorobenzyl)thiocarbamic acid O-{(1S,2R,3S,5R)-3,5-dihydroxy-2-[(Z)-6-(2-hydroxyethylcarbamoyl)hex-2-enyl]cyclopentylmethyl}ester], the EC50 in assay [1] worked out at 11000 nM.

For `CCNC(=O)CCC/C=C\C[C@@H]1[C@@H](COC(=S)NCc2cccc(Cl)c2)[C@H](O)C[C@@H]1O` [Example 19, (3-Chlorobenzyl)thiocarbamic acid O-[(1S,2R,3S,5R)-2-((Z)-6-ethylcarbamoylhex-2-enyl)-3,5-dihydroxycyclopentylmethyl]ester], a half-maximal effect in assay [1] (EC50) was put at 2910 nM.

With `CCCCNC(=S)OC[C@@H]1[C@@H](C/C=C\CCCC(=O)O)[C@@H](O)C[C@H]1O` [Example 11, (Z)-7-((1R,2S,3R,5S)-2-Butylthiocarbamoyloxymethyl-3,5-dihydroxycyclopentyl)-hept-5-enoic acid], the EC50 in assay [1] came out at 171 nM.

`O=C(O)CCC/C=C\C[C@@H]1[C@@H](COC(=O)NCc2cccc(C(F)(F)F)c2)[C@H](O)C[C@@H]1O` [Example 13, (Z)-7-[(1R,2S,3R,5S)-3,5-Dihydroxy-2-(3-trifluoromethylbenzylcarbamoyloxymethyl)cyclopentyl]hept-5-enoic acid] returned an EC50 in assay [1] of 2840 nM.

Take `O=C(O)CCC/C=C\C[C@@H]1[C@@H](COC(=S)NCc2cccc(C(F)(F)F)c2)[C@H](O)C[C@@H]1O` [Example 14, (Z)-7-[(1R,2S,3R,5S)-3,5-Dihydroxy-2-(3-trifluoromethylbenzylthiocarbamoyloxymethyl)cyclopentyl]hept-5-enoic acid]: in assay [1], the response was half-maximal at 178 nM (EC50).
